In patent US5304554A, “4-[(alkyl or dialkyl)amino]quinolines and their method of preparation” (Emory University, priority 1992, dated 1994):
“Also recorded” adds a separate entry of the source.

What was measured:
HIV-1 (strain LAV) = experiment: Anti-HIV-1 activity in human PBM cells infected with HIV-1 (strain LAV), reverse transcriptase readout; format: cell-based; conditions: Human immunodeficiency virus 1, PBMC, read-out: Median effective concentration (EC50) against HIV-1
Method: The median effective concentrations (EC50) of selected quinolines against HIV-1 were determined in human blood mononuclear (PBM) cells infected with HIV-1 (strain LAV) as described below. […] It appears that the presence of a heteraromatic substituent at position 2 of the quinoline enhances the anti-HIV-1 activity of the 4-[(alkyl and dialkyl)amino]quinoline derivative. The anti-HIV-1 activity appears to be diminished in compounds with large substituents attached to the 4-amino group.
The following procedure was used to determine the EC50 values for selected compounds.
A. Three-day-old phytohemagglutinin-stimulated PBM cells (10^6 cells/ml) from hepatitis B and HIV-1 seronegative healthy donors were infected with HIV-1 (strain LAV) at a concentration of about 100 times the 50% tissue culture infectious dose (TICD 50) per ml and cultured in the presence and absence of various concentrations of quinolines.
B. Approximately 45 minutes after infection, medium, with the compound to be tested (2 times the final concentration in medium) or without compound, was added to the flasks (5 ml; final volume 10 ml). AZT was used as a positive control.
C. The cells were exposed to HIV (about 2×10^5 dpm/ml, as determined by reverse transcriptase assay) and then placed in a CO2 incubator. HIV-1 (strain LAV) was obtained from the Center for Disease Control, Atlanta, Ga. The methods used for culturing the PBM cells, harvesting the virus and determining the reverse transcriptase activity were those described by McDougal et al. (J. Immun. Meth. 76, 171-183, 1985) and Spira et al. (J. Clin. Meth. 25, 97-99, 1987), except that fungizone was not included in the medium (see Schinazi, et al., Antimicrob. Agents Chemother. 32, 1784-1787 (1988)). The reverse transcriptase activity in the virus-infected control was about 2×10^5 dpm per ml. Blank and uninfected cell control values were about 300 and 1,000 dpm, respectively.
D. On day 6, the cells and media were transferred to a 15 ml tube and centrifuged at about 900 g for 10 minutes. Five ml of supernatant were removed and the virus concentrated by centrifugation at 40,000 rpm for 30 minutes (Beckman 70.1 Ti rotor). The solubilized virus pellet was processed for determination of the levels of reverse transcriptase. Results are expressed in dpm/ml of sampled supernatant.
The median effective (EC50) concentrations for derivatized quinolines, were determined by the median effect method (Antimicrob. Agents Chemother. 30: 491-498, 1986). Briefly, in the median effect method, the percent inhibition of virus, as determined from measurements of reverse transcriptase, is plotted versus the micromolar concentration of compound. The EC50 is the concentration of compound at which there is a 50% inhibition of viral replication.

DNA = conditions: Hahn et al. 1966; cited from earlier work
[1] = system: antimalarial and antiamoebic activity; conditions: Hahn et al.; cited from earlier work
[2] = infants and children, high dosages; cited from earlier work
[3] = Toxicity (growth) in uninfected human peripheral blood mononuclear (PBM) cells; format: cell-based; conditions: 6 days, trypan blue exclusion, read-out: IC50, growth of uninfected PBM cells
Method: The toxicity of 6a,6d,8a, and 8c were determined in […] PBM cells (3.8×10^5 cells/ml) cultured in the presence and absence of compounds under conditions similar to those used for the antiviral assay described above but without virus. The cells were counted after 6 days using a hemacytometer and the trypan blue exclusion method, as described by Schinazi et al., Antimicrobial Agents and Chemotherapy, 22(3), 499 (1982).
The effect of the compounds on the growth of uninfected human PBM cells in culture is used as an indicator of the toxicity of the test compound to the normal viability of cells. The IC50 is the concentration of compound which inhibits 50% of normal, uninfected, cell growth.

[4] = system: Plasmid pBR322 superhelical DNA; conditions: reference value; cited from earlier work

| SMILES | EC50 (HIV-1 (strain LAV)) [µM] | other results |
| --- | --- | --- |
| CN(C)CCNc1cc(-c2cccs2)nc2ccccc12 [Quinoline 9a] | 1 |  |
| CN(C)CCNc1cc(-c2ccccn2)nc2ccccc12 [Quinoline 5a] | 1.1 |  |
| CCN(CCN(C)C)c1cc(-c2cccnc2)nc2ccccc12 [Quinoline 6b] | 24.2 |  |
| CN1CCN(c2cc(-c3ccccn3)nc3ccccc23)CC1 [Quinoline 5d] | 5.5 |  |
| CCN(CC)CCCC(C)Nc1ccnc2cc(Cl)ccc12 (centres unmarked) [chloroquine, 7-chloro-4-(4-diethylamino-1-methylbutylamino)quinoline] |  | Inhibition of nucleic acid biosynthesis (in words) (DNA): inhibits nucleic acid biosynthesis by forming a molecular complex with DNA; Antimalarial and antiamoebic activity (in words) [1]: have antimalarial and antiamoebic activity; Adverse effects (in words) [2]: Sudden deaths have been reported; also recorded: infants and children are extremely susceptible to adverse effects |
| CCN(CC)CCCC(C)Nc1c2ccc(Cl)cc2nc2ccc(OC)cc12 (centres unmarked) [quinacrine, 6-chloro-9-[[4-(diethylamino)-1-methylbutyl]amino]-2-methoxyacridine] |  | Antimalarial and antiamoebic activity (in words) [1]: have antimalarial and antiamoebic activity |
| CN1CCN(c2cc(-c3ccco3)nc3ccccc23)CC1 [Quinoline 8c] | 1 | CC50 at 144 h [3]: > 100 µM |
| CN(C)CCNc1cc(-c2cccnc2)nc2ccccc12 [Quinoline 6a] | 1.5 | CC50 at 144 h [3]: > 100 µM |
| CN1CCN(c2cc(-c3ccncc3)nc3ccccc23)CC1 [Quinoline 7c] | 68.2 |  |
| CC[n+]1c(-c2ccccc2)c2cc(N)ccc2c2ccc(N)cc21 [ethidium] |  | Unwinding angle [4]: 26 |
| CN1CCN(c2cc(-c3cccnc3)nc3ccccc23)CC1 [Quinoline 6d] | 1 | CC50 at 144 h [3]: > 100 µM |
| CCN(CCN(C)C)c1cc(-c2ccccn2)nc2ccccc12 [Quinoline 5b] | 13.2 |  |
| CCN(CCN(C)C)c1cc(-c2cccs2)nc2ccccc12 [Quinoline 9c] | 32.4 |  |
| CN(C)CCNc1cc(-c2ccco2)nc2ccccc12 [Quinoline 8a] | 0.9 | CC50 at 144 h [3]: > 100 µM |
